The values below come from US7530461B2, “Esters of 5-aminolevulinic acid as photosensitizing agents in photochemotherapy” (PhotoCure ASA, priority 1995, dated 2009).

Entries after “also recorded” stand apart in the source; their conditions may differ. Structures can show the parent of a compound that is named as a salt.

In series [1] the test system is normal skin of nu/nu nude mice. The experiment in a line: Protoporphyrin IX production in the skin of mice by CCD microscopy of biopsies. It is filed as in vivo. As to conditions: 20% w/w cream; for time after topical application at which conversion into protoporphyrin IX (PpIX) is seen: normal skin of nu/nu nude mice; for time of maximum PpIX fluorescence after application: topical, 6 hours was the latest time point studied. Here is the method: A commercial oil-in-water cream containing (20% w/w) one of the chemicals (free ALA, ALA methylester, ALA ethylester and ALA propylester) (see Example 1) was topically applied to the normal skin of nu/nu nude mice for 0.5, 1, 3 and 6 hours, then biopsied and evaluated by means of microscopic fluorescence photometry incorporating a light-sensitive thermol-electrically cooled charge coupled device (CCD) camera. […] The fluorescence intensity of PpIX in the skin increased with the time of the application and the maximum amounts of the fluorescence were seen about 6 hours (the latest time point studied) after the application in all cases.

Series [2] has as its system normal skin of nude mice. Nature of the series: Fluorescence microscopy of mouse skin biopsies after topical application. It is filed as in vivo. As to conditions: 1 h after topical application. Here is the method: (§1) Treatment procedure. One of the creams was painted on the normal skin at right flank region of each mouse, and covered by a semi-permeable dressing (3M, St Paul, Minn., USA) for various time intervals (from 0.25 to 24 h) before fluorescence measurements in situ or being biopsied for microscopic fluorescence imaging. About 0.2 g cream was applied to an approximate 2.25 cm^2 area of the skin. In the case of i.p. injection the mice were given ALA or its methylester at a dose of 150 mg/kg. At least three mice were used for each condition.
Fluorescence microscopy. After the creams were topically applied to the skin of mice for various times (as indicated above), the skin was biopsied and the frozen tissue sections were cut with a cryostat to a thickness of 8 μm. The fluorescence microscopy was carried out using an Axioplan microscope (Zeiss, Germany) with a 100 W mercury lamp. The fluorescence images were recorded by a light-sensitive thermoelectrically cooled charge coupled device (CCD) camera (resolution: 385×578 pixels with a dynamic range of 16 bits per pixel)(Astromed CCD 3200, Cambridge, UK) and hard copies on a video printer (Sony multiscan video printer UP-930). The filter combination used for detection of porphyrin fluorescence consisted of 390-440 nm excitation filter, a 460 nm beam splitter and a >600 nm emission filter.
II. […] The fluorescence intensity of the porphyrins increased with the time after the application.

The test system of series [3] is normal skin of nude mice. Nature of the series: In situ measurement of PpIX fluorescence in the skin of mice by an optical-fiber-based system. As to conditions: for PpIX fluorescence in normal mouse skin after cream containing the agent alone: without ALA methylester. It counts as in vivo. The protocol:
Chemicals. 5-aminolevulinic acid (ALA) methyl-, ethyl- and propyl-esters (H2N—CH2COOCH2—CH2COO—R; R can be CH3, CH2—CH2—CH3) were prepared by Norsk Hydro Research Center (Porsgrunn, Norway) as described in Examples 1 to 3. Free ALA hydrochloride and desferrioxamine mesylate (DF) were purchased from Sigma Chemical Company (St. Louis, Mo., USA). Dimethyl sulphoxide (DMSO) was obtained from Janssen Chimica (Geel, Belgium). Commercial oil-water creams (Unguentum Merck, Darmstadt, Germany) containing 20% one of the ALA ester derivatives (w/w), 20% free ALA, 20% ALA methylester plus 5% DF, 20% ALA methylester plus 20% DMSO, or 20% ALA methylester plus 5% DF and 20% DMSO were freshly prepared prior to use. All creams were made by the Pharmacy at the Norwegian Radium Hospital. For intraperitoneal injection, ALA and its methylester were freshly dissolved in saline. All other chemicals used were of the highest purity commercially available.
Animals. Female Balb/c nu/nu athymic nude mice were obtained from the Animal Laboratory at the Norwegian Radium Hospital and kept under specific-pathogen-free conditions. At the start of the experiments the mice were 6-7 weeks old weighing 18-24 g. Three mice were housed per cage with autoclaved covers in a dark room during the experiments.
as §1
Fluorescence spectroscopic measurements in situ. A perkin Elmer LS-50 fluorescence spectrometer equipped with a red-sensitive photomultiplier (Hamamatsu R 928) was used. This instrument has a pulsed Xenon arc light source and phase sensitive detection, such that fluorescence can be readily measured. Part of the excitation beam (set at 408 nm for fluorescence measurements) was reflected into a 600 μm core multimodus optical quartz fiber (No. 3501 393, Dornier Medizintechnik, GmbH, Germering, Germany) by means of a mirror for application onto the subject through a hand held probe. Emission in the region of 550-750 nm was measured via emission fibres collecting information through the probe.
I. The effect of DF and/or DMSO on the build up of fluorescence in the normal skin of mice in situ was ascertained various times after topical administration of ALA-methylester. Methods were performed as described in Example 9.

For series [4], the system named is BCC lesions and surrounding normal skin. The experiment in a line: PpIX production in human BCC and surrounding normal skin by CCD microscopy of biopsies. It is filed as in vivo. The protocol: […] After removal of dressings and cream in vivo fluorescence was measured at the surface of tumor tissue and adjacent normal skin by means of a spectrofluorometer. Punch biopsies of the same areas were removed and samples were immediately immersed in liquid nitrogen. The tissue sections were cut with a cryostat microtome to a thickness of 8 μm. The localization pattern of the porphyrin fluorescence in the tissue sections was directly observed by means of fluorescence microscopy. The same frozen sections were subsequently stained with routine H&E staining for histological identification.
The same sections were subsequently stained with routine H&E staining for histological identification. Fluorescence microscopy was carried out with an Axioplan microscope (Zeiss, Germany). Fluorescence images and quantitative measurements were performed by a light-sensitive thermol-electrically cooled charge coupled device (CCD) camera (Astromed CCD 3200, Cambridge, UK) and an image processing unit (Astromed/Visilog, PC 486DX2 66 MHz VL). The main purpose for such quantitative measurements is to determine the exact penetration of ALA-induced porphyrins from tissue surface to the bottom layers of cancer lesions. The results are shown in FIGS. 8 and 9 in which the fluorescence intensity is expressed as a function of depth of cancer lesion.
The tests were performed as described in Example 11.
Each of the following figures show both (A) fluorescence images of either the bottom layer of BCC lesions or of the surrounding normal skin. Curves indicating the fluorescence intensity as a function of depth of the BCC lesions or of the normal skin are also shown (B).

Series [5] deals with BCC lesions and adjacent normal skin. The experiment in a line: Control one week after treatment (cream and light irradiation) of BCC patient. It counts as in vivo, human.
Series [6] deals with basal cell carcinomas (BCCs). Nature of the series: Topical ALA-based PDT of patients with basal cell carcinomas. It counts as in vivo, human.
The subject of series [7] is normal skin of nude mice. The experiment in a line: In situ measurement of PpIX fluorescence in the skin of mice by an optical-fiber-based system. It counts as in vivo. As to conditions: 14 hours after topical application; listed as free ALA.
The mark [8] stands for this setting: topical application for 24 hours.

Regarding `CCOC(=O)CCC(=O)CN.Cl` [ALA ethylester, ethyl 5-aminolevulinate hydrochloride], in series [1], the “time after topical application at which conversion into protoporphyrin IX (PpIX) is seen” value (shortened to “time after topical application … (PpIX) is seen”) turned out to be 0.5 h and the “time of maximum PpIX fluorescence after application” value (shortened to “time of maximum PpIX fluorescence”) is listed as “about 6 hours”. For the same compound, the “localization of porphyrin fluorescence in mouse skin” value (shortened to “localization”) in the series with normal skin of nude mice [2] is “fluorescence in the epidermis (Ep), epithelial hair follicles and sebaceous gland (arrows), but not in the dermis (De)”.
Turning to `CCCOC(=O)CCC(=O)CN.Cl` [ALA propylester, n-propyl 5-aminolevulinate hydrochloride], in series [1], the “time after topical application … (PpIX) is seen” value stood at 0.5 h and the “time of maximum PpIX fluorescence” value is on record as “about 6 hours”. The “localization” value in the series on normal skin of nude mice [2] was “fluorescence in the epidermis (Ep), epithelial hair follicles and sebaceous gland (arrows), but not in the dermis (De)”.
Regarding `NCC(=O)CCC(=O)O` [ALA, 5-aminolevulinic acid], in series [1], the “time after topical application … (PpIX) is seen” value stood at 0.5 h and the “time of maximum PpIX fluorescence” value is on record as “about 6 hours”. The “time after topical application at which PpIX fluorescence was built up” value in the series with normal skin of nude mice [3] (20% cream, normal skin of nude mice) is 1.5 h. Also, the “localization” value in the series on normal skin of nude mice [2] was “fluorescence in the epidermis (Ep), epithelial hair follicles and sebaceous gland (arrows), but not in the dermis (De)”. Moreover, in series [4] (20% w/w cream, 24 hours, patient), the “distribution of PpIX fluorescence from top to bottom of BCC lesions” value is recorded as “homogeneous distribution of PpIX fluorescence”. In series [4] (setting [8]), the “distribution of porphyrin fluorescence in the bottom layer of BCC and surrounding normal skin” value is “homogenous distribution”; the “fluorescence intensity ratio between BCC and normal skin” value is on record as “about 1”; the “porphyrin fluorescence/production in BCC, ALA methyl ester versus free ALA alone” value is on record as “less than that in the case of ALA methyl ester”. For the same compound, in series [5], the “erythema in adjacent normal skin exposed to cream and light irradiation” value is “marked erythema”; the “tumor response in treatment fields” value is reported as “central necrotic area corresponding to the tumor”. Besides, in series [6], the “complete response rate of nodular BCCs” value is given as “low complete response rate”. For the same compound, the “superficial BCCs showing complete regression” value in series [6] (past five years) is reported as “more than 90%”. The “PpIX fluorescence in other areas of the skin and internal organs (ear, dermis, muscle, brain, liver)” value in the series with normal skin of nude mice [7] is given as “a strong fluorescence was also seen in the ear as well as in the other areas of the skin; also recorded: a strong fluorescence of free ALA-induced porphyrins was found in regions of the skin outside the area where the cream was topically applied”.
`CC(=O)N(O)CCCCCNC(=O)CCC(=O)N(O)CCCCCNC(=O)CCC(=O)N(O)CCCCCN` [DF, desferrioxamine mesylate]: the “effect on production of ALA methylester-induced PpIX” value in the series with normal skin of nude mice [3] (topical, with 20% ALA methylester cream, normal mouse skin) is recorded as “significantly enhanced; also recorded: significant effect in enhancing the production”. Also, the “PpIX fluorescence in normal mouse skin after cream containing the agent alone” value in the series with normal skin of nude mice [3] (topical) is recorded as “some fluorescence of PpIX”.
For `C[S+](C)[O-]` [DMSO, Dimethyl sulphoxide], the “PpIX fluorescence in normal mouse skin after cream containing the agent alone” value with normal skin of nude mice [3] (topical) is on record as “did not show any fluorescence”.
